The values that follow are results of earlier work, collected in US10188693B2, “Methods for treatment of atherosclerosis” (Stealth BioTherapeutics Corp, priority 2012, dated 2019).

In series [1] the test system is hepatitis C virus (HCV). As to conditions: in vitro model of HCV infection (alone and with interferon); cited from earlier work.
Series [2] relates to spinal cord injury in rodents. As to conditions: administered both pre- and post-injury; cited from earlier work.

`CC(C)c1c(C(=O)Nc2ccccc2)c(-c2ccccc2)c(-c2ccc(F)cc2)n1CC[C@@H](O)C[C@@H](O)CC(=O)O` [atorvastatin]: the “anti-HCV effect, in words” value in series [1] is recorded as “anti-HCV effect”. Also, the “effect on spinal cord injury, in words” value in series [2] is “promoting locomotion and tissue sparing, as well as reducing inflammation”.
With `O=C(O)C[C@H](O)C[C@H](O)/C=C/c1c(C2CC2)nc2ccccc2c1-c1ccc(F)cc1` [pitavastatin], the “anti-HCV effect, in words” value in series [1] was “anti-HCV effect”.
On to `CC[C@H](C)C(=O)O[C@H]1C[C@@H](C)C=C2C=C[C@H](C)[C@H](CC[C@@H]3C[C@@H](O)CC(=O)O3)[C@H]21` [lovastatin], for which the “anti-HCV effect, in words” value in series [1] is on record as “anti-HCV effect”.
